ChEMBL document CHEMBL4325844, “Development of 2-amino-4-phenylthiazole analogues to disrupt myeloid differentiation factor 88 and prevent inflammatory responses in acute lung injury” (Eur J Med Chem, 2019)
Activity calls are given as the source filed them. No cut-off for these calls is given here.

How the values were obtained:
Mus musculus [1] = test: Antiinflammatory activity in LPS-induced C57/BL6 mouse model of acute lung injury assessed as reduction in IL6 mRNA expression at 10 mg/kg, ip pretreated for 30 mins followed by LPS challenge measured after 6 hrs by SYBR green dye based RT-qPCR analysis; type: functional, organism-based
Mus musculus [2] = test: Antiinflammatory activity in LPS-induced C57/BL6 mouse model of acute lung injury assessed as reduction in TNFalpha level in BALF at 10 mg/kg, ip pretreated for 30 mins followed by LPS challenge measured after 6 hrs by ELISA; type: functional, organism-based
Mus musculus [3] = test: Antiinflammatory activity in LPS-induced C57/BL6 mouse model of acute lung injury assessed as reduction in IL6 level in serum at 10 mg/kg, ip pretreated for 30 mins followed by LPS challenge measured after 6 hrs by ELISA; type: functional, organism-based
Mus musculus [4] = test: Antiinflammatory activity in LPS-induced C57/BL6 mouse model of acute lung injury assessed as reduction in neutrophil inflammatory infiltration at 10 mg/kg, ip pretreated for 30 mins followed by LPS challenge measured after 6 hrs by F4/80/hematoxylin staining based microscopic analysis; type: functional, organism-based
Peritoneal macrophage [5] = test: Antiinflammatory activity in ICR mouse primary peritoneal macrophages assessed as inhibition of LPS-induced TNFalpha production at 20 uM preincubated for 60 mins followed by LPS stimulation and measured after 24 hrs by ELISA relative to control; type: functional
[6] = target: T1, Myeloid differentiation primary response protein MyD88 (Homo sapiens, UniProt Q99836); test: Inhibition of LPS-induced HA-tagged MyD88 (unknown origin) interaction with FLAG-tagged MyD88 (unknown origin) expressed in HEK293 cells at 20 uM after 48 hrs by co-immunoprecipitation method; type: cell-based
T1 sequence (Q99836 whole entry): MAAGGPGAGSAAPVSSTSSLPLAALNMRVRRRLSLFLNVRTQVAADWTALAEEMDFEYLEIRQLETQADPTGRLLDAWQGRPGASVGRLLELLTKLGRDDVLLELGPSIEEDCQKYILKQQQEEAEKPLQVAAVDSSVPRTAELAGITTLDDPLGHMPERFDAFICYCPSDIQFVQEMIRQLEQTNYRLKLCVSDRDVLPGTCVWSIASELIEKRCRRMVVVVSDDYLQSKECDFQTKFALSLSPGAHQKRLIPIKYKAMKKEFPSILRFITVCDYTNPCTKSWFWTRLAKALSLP

Peritoneal macrophage [7] = test: Antiinflammatory activity in ICR mouse primary peritoneal macrophages assessed as inhibition of LPS-induced TNFalpha production preincubated for 2 hrs followed by LPS stimulation and measured after 22 hrs by ELISA; type: functional, cell-based
[8] = Cytotoxicity against rat NRK cells assessed as cell viability at 20 uM after 24 hrs by MTT assay relative to control; type: cell-based; settings: read-out: Activity
[9] = target: T1, Myeloid differentiation primary response protein MyD88; test: Binding affinity to recombinant human MyD88 TIR domain (157 to 296 residues) expressed in Escherichia coli BL21(DE3) by surface plasmon resonance analysis
Mus musculus [10] = test: Antiinflammatory activity in LPS-induced C57/BL6 mouse model of acute lung injury assessed as reduction in interstitial edema at 10 mg/kg, ip pretreated for 30 mins followed by LPS challenge measured after 6 hrs by hematoxylin and eosin staining based microscopic analysis; type: functional, organism-based
[11] = target: Toll-like receptor 4/MD-2 (Homo sapiens) (UniProt O00206+Q9Y6Y9); test: Inhibition of LPS-induced HA/FLAG-tagged TLR4 (unknown origin) interaction with MD2 (unknown origin) expressed in HEK293 cells at 20 uM after 48 hrs by co-immunoprecipitation method; type: cell-based
Mus musculus [12] = test: Antiinflammatory activity in LPS-induced C57/BL6 mouse model of acute lung injury assessed as reduction in lung tissue destruction at 10 mg/kg, ip pretreated for 30 mins followed by LPS challenge measured after 6 hrs by hematoxylin and eosin staining based microscopic analysis; type: functional, organism-based
Mus musculus [13] = test: Antiinflammatory activity in LPS-induced C57/BL6 mouse model of acute lung injury assessed as reduction in inflammatory infiltration at 10 mg/kg, ip pretreated for 30 mins followed by LPS challenge measured after 6 hrs by hematoxylin and eosin staining based microscopic analysis; type: functional, organism-based
Mus musculus [14] = test: Antiinflammatory activity in LPS-induced C57/BL6 mouse model of acute lung injury assessed as reduction in macrophage inflammatory infiltration at 10 mg/kg, ip pretreated for 30 mins followed by LPS challenge measured after 6 hrs by F4/80/hematoxylin staining based microscopic analysis; type: functional, organism-based
Mus musculus [15] = test: Antiinflammatory activity in LPS-induced C57/BL6 mouse model of acute lung injury assessed as reduction in lung wet/dry ratio at 10 mg/kg, ip pretreated for 30 mins followed by LPS challenge measured after 6 hrs; type: functional, organism-based
Mus musculus [16] = test: Antiinflammatory activity in LPS-induced C57/BL6 mouse model of acute lung injury assessed as reduction in thicken alveolar septa at 10 mg/kg, ip pretreated for 30 mins followed by LPS challenge measured after 6 hrs by hematoxylin and eosin staining based microscopic analysis; type: functional, organism-based
Mus musculus [17] = test: Antiinflammatory activity in LPS-induced C57/BL6 mouse model of acute lung injury assessed as reduction in TNFalpha level in serum at 10 mg/kg, ip pretreated for 30 mins followed by LPS challenge measured after 6 hrs by ELISA; type: functional, organism-based
[18] = target: Toll-like receptor 4/Ly96 (Mus musculus) (UniProt Q9QUK6+Q9JHF9); test: Inhibition of TLR4/MD2 interaction in LPS-induced mouse RAW264.7 at 20 uM measured after 30 mins by co-immunoprecipitation method; type: cell-based
Peritoneal macrophage [19] = test: Antiinflammatory activity in ICR mouse primary peritoneal macrophages assessed as inhibition of LPS-induced IL-6 production preincubated for 2 hrs followed by LPS stimulation and measured after 22 hrs by ELISA; type: functional, cell-based
[20] = target: T1, Myeloid differentiation primary response protein MyD88; test: Potency index, ratio of TJ-M2010-5 Kd to test compound Kd for recombinant human MyD88 TIR domain (157 to 296 residues) expressed in Escherichia coli BL21(DE3)
[21] = target: Myeloid differentiation primary response protein MyD88 (Mus musculus) (UniProt P22366); test: Inhibition of MyD88 in ICR mouse primary peritoneal macrophages assessed as reduction in LPS-induced ERK phosphorylation at 20 uM preincubated for 30 mins followed by LPS-stimulation and measured after 20 mins by Western blot analysis
Myeloid differentiation primary response protein MyD88 (Mus musculus), sequence (P22366 whole entry, the tested form may be a part): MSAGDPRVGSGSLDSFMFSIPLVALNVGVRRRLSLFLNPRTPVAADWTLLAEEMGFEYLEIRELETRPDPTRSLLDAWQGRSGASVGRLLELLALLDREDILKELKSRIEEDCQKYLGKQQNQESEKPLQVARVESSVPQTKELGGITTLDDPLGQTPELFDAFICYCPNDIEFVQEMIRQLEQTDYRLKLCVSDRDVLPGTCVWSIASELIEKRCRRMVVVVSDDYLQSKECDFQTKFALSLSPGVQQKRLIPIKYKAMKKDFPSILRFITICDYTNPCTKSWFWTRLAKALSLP

[22] = target: Myeloid differentiation primary response protein MyD88 (Mus musculus) (UniProt P22366); test: Inhibition of MyD88 in mouse RAW264.7 cells expressing EGFP-fused NFkappaB at 10 uM preincubated for 30 mins followed by LPS-stimulation and measured after 1 hr by fluorescence assay; type: cell-based
Mus musculus [23] = test: Antiinflammatory activity in LPS-induced C57/BL6 mouse model of acute lung injury assessed as reduction in TNFalpha mRNA expression at 10 mg/kg, ip pretreated for 30 mins followed by LPS challenge measured after 6 hrs by SYBR green dye based RT-qPCR analysis; type: functional, organism-based
[24] = target: Myeloid differentiation primary response protein MyD88 (Mus musculus) (UniProt P22366); test: Inhibition of MyD88 in ICR mouse primary peritoneal macrophages assessed as reduction in LPS-induced p38 MAPK phosphorylation at 20 uM preincubated for 30 mins followed by LPS-stimulation and measured after 20 mins by Western blot analysis
[25] = target: Toll-like receptor 4 (Homo sapiens) (UniProt O00206); test: Binding affinity to recombinant human 10His-tagged TLR4 (24 to 631 residues) by SPR assay
Toll-like receptor 4 (Homo sapiens), sequence (O00206 whole entry, the tested form may be a part): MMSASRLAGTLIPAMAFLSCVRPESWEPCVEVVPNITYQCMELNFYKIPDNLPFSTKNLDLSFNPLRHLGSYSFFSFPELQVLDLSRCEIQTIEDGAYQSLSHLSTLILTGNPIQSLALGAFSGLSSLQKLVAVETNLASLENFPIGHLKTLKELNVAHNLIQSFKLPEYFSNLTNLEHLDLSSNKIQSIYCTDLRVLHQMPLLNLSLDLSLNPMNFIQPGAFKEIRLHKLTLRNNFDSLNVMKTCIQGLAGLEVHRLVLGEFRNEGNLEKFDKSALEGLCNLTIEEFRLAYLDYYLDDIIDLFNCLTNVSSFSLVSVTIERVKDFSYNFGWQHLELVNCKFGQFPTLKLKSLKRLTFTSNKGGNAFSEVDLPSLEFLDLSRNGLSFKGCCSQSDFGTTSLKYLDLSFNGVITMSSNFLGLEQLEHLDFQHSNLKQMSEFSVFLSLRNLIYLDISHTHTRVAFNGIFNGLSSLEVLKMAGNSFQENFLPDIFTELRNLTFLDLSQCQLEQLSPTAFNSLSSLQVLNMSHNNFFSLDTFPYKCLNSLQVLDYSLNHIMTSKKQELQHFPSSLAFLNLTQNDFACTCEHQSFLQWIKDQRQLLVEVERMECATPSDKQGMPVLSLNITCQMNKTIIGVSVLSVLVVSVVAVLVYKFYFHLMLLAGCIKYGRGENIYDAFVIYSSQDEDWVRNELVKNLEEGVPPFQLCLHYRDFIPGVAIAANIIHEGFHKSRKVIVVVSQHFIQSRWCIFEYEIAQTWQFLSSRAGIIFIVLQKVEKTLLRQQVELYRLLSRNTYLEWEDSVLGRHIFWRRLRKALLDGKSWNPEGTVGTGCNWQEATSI

Peritoneal macrophage [26] = test: Potency index, ratio of TJ-M2010-5 IC50 to test compound IC50 for inhibition of LPS-induced TNFalpha production in ICR mouse primary peritoneal macrophages; type: functional
Mus musculus [27] = test: Antiinflammatory activity in LPS-induced C57/BL6 mouse model of acute lung injury assessed as reduction in ICAM1 mRNA expression at 10 mg/kg, ip pretreated for 30 mins followed by LPS challenge measured after 6 hrs by SYBR green dye based RT-qPCR analysis; type: functional, organism-based

COc1cc(-c2csc(NC(=O)CCN3CCN(Cc4cccc([N+](=O)[O-])c4)CC3)n2)ccc1O
Activity (Mus musculus [1]): Active
Activity (Mus musculus [2]): Active
Activity (Mus musculus [3]): Active
Activity (Mus musculus [4]): Active
inhibition at 20 µM (Peritoneal macrophage [5]): 90.4%
inhibition [6]: Active
IC50 (Peritoneal macrophage [7]): 890 nM
inhibition (Peritoneal macrophage [7]): Dose-dependent effect
viability at 24 h, 20 µM [8]: > 80%
Activity [9]: Dose-dependent effect
Ka [9]: 4830 M⁻¹ s⁻¹
Kd [9]: 34500 nM
Kdiss [9]: 0.167 s⁻¹
Activity (Mus musculus [10]): Active
inhibition [11]: inactive
Activity (Mus musculus [12]): Active
Activity (Mus musculus [13]): Active
Activity (Mus musculus [14]): Active
Activity (Mus musculus [15]): Active
Activity (Mus musculus [16]): Active
Activity (Mus musculus [17]): Active
inhibition [18]: inactive
IC50 (Peritoneal macrophage [19]): 2520 nM
inhibition (Peritoneal macrophage [19]): Dose-dependent effect
Ratio [20]: 5
inhibition [21]: Active
inhibition [22]: Active
Activity (Mus musculus [23]): Active
inhibition [24]: Active
Activity [25]: inactive
Ratio IC50 (Peritoneal macrophage [26]): 13
Activity (Mus musculus [27]): Active
